IC50 data for 3 compounds are collected here from EP4219453A1 (Sichuan Kelun-Biotech Biopharmaceutical Co., Ltd., priority 2020, dated 2022).

In one assay the target is T1, TGFβR1 (Homo sapiens, UniProt P36897).
T1 sequence (P36897 34-503): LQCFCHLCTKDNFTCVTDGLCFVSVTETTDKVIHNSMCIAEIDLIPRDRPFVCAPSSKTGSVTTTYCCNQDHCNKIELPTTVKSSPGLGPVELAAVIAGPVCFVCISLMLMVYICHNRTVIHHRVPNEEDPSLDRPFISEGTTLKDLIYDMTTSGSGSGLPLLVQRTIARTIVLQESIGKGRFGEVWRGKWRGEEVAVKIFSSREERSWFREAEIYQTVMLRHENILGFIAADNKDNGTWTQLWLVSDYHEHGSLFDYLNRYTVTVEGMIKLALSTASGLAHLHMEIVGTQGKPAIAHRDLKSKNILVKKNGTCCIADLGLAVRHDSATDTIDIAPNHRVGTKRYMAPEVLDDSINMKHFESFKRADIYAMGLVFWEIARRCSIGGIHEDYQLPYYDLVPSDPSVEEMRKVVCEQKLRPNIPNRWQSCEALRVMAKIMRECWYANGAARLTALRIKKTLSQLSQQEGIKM
Briefly: In vitro enzymatic activity inhibition test (TGFβR1), ADP-Glo Kinase Detection Kit. It is filed as biochemical. The conditions noted are these: calculated from percent inhibition at 1000 nM, 100 nM, 10 nM. The method, then: Test Example 1: In vitro enzymatic activity inhibition test (TGFβR1).
(§1) Experimental method: According to the instructions of ADP-Glo™ Kinase Detection Kit (Promega), the inhibitory effect of the compounds of the present invention on the enzymatic activity of TGFβR1 was determined, and the steps were as follows: TGFβR1 enzyme were pre-incubated with different concentrations of test compounds (1000 nM, 100 nM, 10 nM) at 30°C for 30 min, TGFβR1 peptide and adenosine triphosphate (ATP) were added to initiate the reaction. The incubation was performed at 30°C for 3 h, followed by an addition of ADP-Glo™ reagent and incubated at room temperature for 90 min, kinase detection reagent was then added. Chemiluminescence signal values were detected after incubation at room temperature for another 30 min.
When the percent inhibition rate was between 30% and 80%, the median inhibitory concentration (IC50) or range of the compound was calculated according to the following formula: IC50 = X × (1 - percent inhibition rate (%)) / percent inhibition rate (%), wherein X is the concentration of the compound at which the inhibition rate is between 30% and 80%.

The target of the next assay is TGFβR2 (Homo sapiens, UniProt P37173). Briefly: In vitro enzymatic activity inhibition test (TGFβR2), ADP-Glo Kinase Detection Kit. It is filed as biochemical. Particulars: MBP substrate, calculated from percent inhibition at 1000nM, 100nM, 10nM. The method, then:
Test Example 2: In vitro enzymatic activity inhibition test (TGFβR2).
as §1, with “TGFβR2” for “TGFβR1”, “(1000nM, 100nM, 10nM)” for “(1000 nM, 100 nM, 10 nM)”, “myelin basic protein (MBP)” for “TGFβR1 peptide”, “The chemiluminescence” for “Chemiluminescence”
When the percent inhibition was between 30% and 80%, the median inhibitory concentration (IC50) or range of the compound was calculated according to the following formula: IC50 = X × (1 - percent inhibition rate (%)) / percent inhibition rate (%), wherein X is the concentration of the compound at which the inhibition rate is between 30% and 80%.

Assay [1] deals with TGFβ/Smads signaling pathway in HEK293-SBE cells. Briefly: In vitro cell activity inhibition test, Bright-Glo luciferase reporter in HEK293-SBE cells. It is filed as cell-based. The conditions noted are these: TGFβ 0.5 ng/ml, luciferase reporter gene method. The method, then:
Test Example 3: In vitro cell activity inhibition test
Experimental method: According to the instructions of Bright-Glo™ luciferase detection kit (Promega), the inhibitory effect of the compounds of the present invention on TGFβ/Smads signaling pathway in HEK293-SBE cells was determined. The steps were as follows: HEK293-SBE cells (Bps bioscience) were added to a 96-well plate (10% FBS medium), 30,000/well, and cultured overnight at 37°C and 5% CO2. The medium was changed to 0.5% FBS medium, and the test compound diluted in 0.5% FBS medium was added. The highest final concentration of the test compound was 10 µM with 4-fold dilution, and a total of 8 concentration gradients. After 4-5 hours of incubation, 10 µl of TGFβ was added. The final concentration of TGFβ was 0.5 ng/ml. 10 µl of medium added in replace of TGFβ was the negative control. In the blank control, no test compound was added, and TGFβ was added. Bright Glo reagent was added to each well, and the chemiluminescence signal value was read on a microplate reader.
The percent inhibition rates of the test compound at different concentrations were plotted against the compound concentrations, the curve was fitted according to the four-parameter model, and the IC50 value was calculated by the following formula: y = Min + (Max - Min) / (1 + (x / IC50) ^ (-Hillslope)), wherein: y is percentage inhibition rate; Max and Min are the maximum and minimum values of the fitted curve, respectively; x is the logarithmic concentration of compound; and Hillslope is the slope of the curve.
(In general: A reporter such as luciferase makes a cellular process visible.)

Sequence of TGFβR2 (P37173 23-567): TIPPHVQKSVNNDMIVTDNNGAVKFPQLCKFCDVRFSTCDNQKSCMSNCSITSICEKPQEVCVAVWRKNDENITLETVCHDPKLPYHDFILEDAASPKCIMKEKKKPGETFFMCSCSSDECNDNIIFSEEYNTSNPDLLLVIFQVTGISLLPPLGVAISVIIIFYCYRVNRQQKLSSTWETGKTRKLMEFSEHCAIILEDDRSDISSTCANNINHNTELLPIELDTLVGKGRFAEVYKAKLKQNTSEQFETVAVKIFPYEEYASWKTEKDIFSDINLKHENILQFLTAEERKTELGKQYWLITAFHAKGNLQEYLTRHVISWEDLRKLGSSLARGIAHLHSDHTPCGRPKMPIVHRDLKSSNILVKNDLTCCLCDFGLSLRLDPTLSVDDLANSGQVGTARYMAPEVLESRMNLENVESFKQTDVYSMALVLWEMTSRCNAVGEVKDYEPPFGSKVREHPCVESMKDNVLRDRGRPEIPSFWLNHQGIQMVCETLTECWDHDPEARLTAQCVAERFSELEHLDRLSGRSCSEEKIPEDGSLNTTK

For `Cc1cccc(-n2nccc2-c2ccn3ncnc3c2)n1` [Example 2, 7-(1-(6-methylpyridin-2-yl)-1H-pyrazol-5-yl)-[1,2,4]triazolo[1,5-a]pyridine], the figures for the IC50 on TGFβR1 and on TGFβR2 were 9.83 ± 4.79 nM and greater than 1000 nM, respectively.
In the case of `Cc1cc(CNc2cc(-c3ccc4ncsc4c3)n(-c3cccc(C)n3)n2)ccn1` [Example 9, 5-(benzo[d]thiazol-6-yl)-1-(6-methylpyridin-2-yl)-N-((2-methylpyridin-4-yl)methyl)-1H-pyrazol-3-amine], the figures for the IC50 (at TGFβR1; in assay [1]) were 27.4 ± 4.89 nM and 43.2 ± 2.54 nM, respectively.
For `Cc1cccc(-n2nccc2-c2ccn3nccc3c2)n1` [Example 3, 5-(1-(6-methylpyridin-2-yl)-1H-pyrazol-5-yl) pyrazolo[1,5-a]pyridine], the values for the IC50 (at TGFβR1; on TGFβR2; in assay [1]) were 43.8 ± 6.08 nM, greater than 1000 nM and 29.1 ± 2.5 nM, respectively.
